The values that follow come from ChEMBL document CHEMBL3045682, “Synthesis of some new indolo[2,3-c]isoquinolinyl pyrazoles, -1,3,4-oxadiazoles and their biological activities” (2013).

What all share (format): functional
Test [1] relates to Radical scavenging activity. In words: Antioxidant activity assessed as DPPH free radical scavenging activity at 75 ug/ml by spectrophotometric analysis relative to control. (Loss of DPPH colour is used to gauge radical scavenging.)
A further test relates to Aspergillus fumigatus. The test is described as follows: Antifungal activity against Aspergillus fumigatus assessed as growth inhibition at 1 mg/ml by cup-plate method. The conditions noted are these: read-out: IZ.
A further test has as its system Aspergillus flavus. The test is described as follows: Antifungal activity against Aspergillus flavus assessed as growth inhibition at 1 mg/ml by cup-plate method. Particulars: read-out: IZ.
A further test has as its system Aspergillus niger. The test is described as follows: Antifungal activity against Aspergillus niger assessed as growth inhibition at 1 mg/ml by cup-plate method. The conditions noted are these: read-out: IZ.
The test system of another test is Pseudomonas putida. In words: Antibacterial activity against Pseudomonas putida assessed as growth inhibition at 1 mg/ml by cup-plate method. The conditions noted are these: read-out: IZ.
For the next test, the system named is Bacillus subtilis. The test is described as follows: Antibacterial activity against Bacillus subtilis assessed as growth inhibition at 1 mg/ml by cup-plate method. The conditions noted are these: read-out: IZ.
The next test has as its system Escherichia coli. In words: Antibacterial activity against Escherichia coli assessed as growth inhibition at 1 mg/ml by cup-plate method. The conditions noted are these: read-out: IZ.
Test [2] concerns Radical scavenging activity. In words: Antioxidant activity assessed as DPPH free radical scavenging activity at 25 ug/ml by spectrophotometric analysis relative to control.
Test [3] concerns Radical scavenging activity. In words: Antioxidant activity assessed as DPPH free radical scavenging activity at 100 ug/ml by spectrophotometric analysis relative to control.
The subject of test [4] is Radical scavenging activity. In words: Antioxidant activity assessed as DPPH free radical scavenging activity at 50 ug/ml by spectrophotometric analysis relative to control.

On to `COc1ccc2[nH]c3c(c2c1)c1ccccc1c(=O)n3C(=O)n1nc(C)cc1C`, for which the Activity in test [1] stood at 53.8%. Moreover, the zone of inhibition at 1000 µg/mL with Aspergillus fumigatus was 4 mm; in the test with Aspergillus flavus, 8 mm; in the test with Aspergillus niger, 10 mm; with Pseudomonas putida, 10 mm; in the test on Bacillus subtilis it was 8 mm; in the test on Escherichia coli, 11 mm.

In the case of `COc1ccc2[nH]c3c(c2c1)c1ccccc1c(=O)n3C(=O)n1nc(-c2ccccc2)cc1-c1ccccc1`, the Activity in test [2] was 60%. Also, the zone of inhibition at 1000 µg/mL was determined as 15 mm in the test with Aspergillus fumigatus; 17 mm with Aspergillus flavus; 9 mm in the test with Aspergillus niger; 17 mm in the test with Pseudomonas putida; 11 mm in the test on Bacillus subtilis; 11 mm with Escherichia coli.

With `Cc1cc(C)n(C(=O)n2c(=O)c3ccccc3c3c4cc(Cl)ccc4[nH]c32)n1`, the zone of inhibition at 1000 µg/mL came to 15 mm in the test with Aspergillus fumigatus; 11 mm in the test with Aspergillus flavus; 16 mm in the test with Aspergillus niger; 19 mm in the test on Pseudomonas putida; 11 mm with Bacillus subtilis; 9 mm with Escherichia coli.

On to `Cc1ccc2[nH]c3c(c2c1)c1ccccc1c(=O)n3C(=O)n1nc(C)cc1C`, for which, in test [3], the Activity is 64.7%. Besides, the zone of inhibition at 1000 µg/mL in the test on Aspergillus fumigatus turned out to be 11 mm; in the test with Aspergillus flavus it was 16 mm; in the test on Aspergillus niger it was 8 mm; in the test with Pseudomonas putida it was 10 mm; in the test with Bacillus subtilis it was 11 mm; in the test on Escherichia coli, 13 mm.

Turning to `COc1ccc2[nH]c3c(c2c1)c1ccccc1c(=O)n3-c1n[nH]c(=S)o1`, the results for the Activity in test [4] and in test [2] were 67.8% and 60.8%, respectively. In addition, the zone of inhibition at 1000 µg/mL with Aspergillus fumigatus was 15 mm; in the test with Aspergillus flavus it was 10 mm; in the test with Aspergillus niger, 10 mm; in the test on Pseudomonas putida, 7 mm; in the test with Bacillus subtilis, 10 mm; in the test on Escherichia coli, 13 mm.

For the molecule `OC(Cn1cncn1)(Cn1cncn1)c1ccc(F)cc1F` [FLUCONAZOLE], the zone of inhibition at 1000 µg/mL with Aspergillus fumigatus turned out to be 18 mm; with Aspergillus flavus it was 19 mm; in the test on Aspergillus niger it was 18 mm.

In the case of `Cc1ccc2[nH]c3c(c2c1)c1ccccc1c(=O)n3-c1n[nH]c(=S)o1`, the Activity was determined as 65.4% in [4] and 57.7% in [2]. The zone of inhibition at 1000 µg/mL came out at 10 mm in the test with Aspergillus fumigatus; 13 mm with Aspergillus flavus; 8 mm with Aspergillus niger; 19 mm in the test on Pseudomonas putida; 11 mm in the test on Bacillus subtilis; 11 mm with Escherichia coli.

`Cc1ccc2[nH]c3c(c2c1)c1ccccc1c(=O)n3C(=O)n1nc(-c2ccccc2)cc1-c1ccccc1`: the Activity in test [4] is 56.9%; in test [2] it was 56.2%. Also, the zone of inhibition at 1000 µg/mL with Aspergillus fumigatus was 4 mm; with Aspergillus flavus, 13 mm; with Aspergillus niger it was 15 mm; in the test on Pseudomonas putida, 13 mm; in the test on Bacillus subtilis, 9 mm; in the test on Escherichia coli, 5 mm.

Consider `O=c1c2ccccc2c2c3cc(Cl)ccc3[nH]c2n1-c1n[nH]c(=S)o1`, for which the Activity came out at 68.9% in test [3], 58% in [1], 69.8% in test [4] and 68.3% in test [2]. Besides, the zone of inhibition at 1000 µg/mL was determined as 17 mm in the test on Aspergillus fumigatus; 16 mm in the test with Aspergillus flavus; 17 mm in the test with Aspergillus niger; 20 mm in the test with Pseudomonas putida; 19 mm with Bacillus subtilis; 18 mm in the test with Escherichia coli.

Regarding `COc1ccc2[nH]c3c(c2c1)c1ccccc1c(=O)n3C(=O)N1N=C(C)CC1=O`, the zone of inhibition at 1000 µg/mL in the test with Aspergillus fumigatus came out at 4 mm; in the test on Aspergillus flavus, 7 mm; with Aspergillus niger, 9 mm; with Pseudomonas putida it was 10 mm; with Bacillus subtilis, 10 mm; in the test with Escherichia coli it was 17 mm.

For `O=C(n1nc(-c2ccccc2)cc1-c1ccccc1)n1c(=O)c2ccccc2c2c3cc(Cl)ccc3[nH]c21`, the zone of inhibition at 1000 µg/mL was determined as 15 mm with Aspergillus fumigatus; 9 mm in the test on Aspergillus flavus; 4 mm with Aspergillus niger; 18 mm in the test with Pseudomonas putida; 13 mm in the test with Bacillus subtilis; 10 mm with Escherichia coli.

Turning to `CN[C@@H]1[C@H](O[C@H]2[C@H](O[C@H]3[C@H](O)[C@@H](O)[C@H](N=C(N)N)[C@@H](O)[C@@H]3N=C(N)N)O[C@@H](C)[C@]2(O)C=O)O[C@@H](CO)[C@H](O)[C@H]1O` [STREPTOMYCIN], the zone of inhibition at 1000 µg/mL in the test on Pseudomonas putida is 22 mm; in the test on Bacillus subtilis, 20 mm; in the test with Escherichia coli, 19 mm.

As to `CC1=NN(C(=O)n2c(=O)c3ccccc3c3c4cc(Cl)ccc4[nH]c32)C(=O)C1`, in test [2], the Activity came out at 67.5%. The zone of inhibition at 1000 µg/mL was determined as 13 mm in the test with Aspergillus fumigatus; 9 mm with Aspergillus flavus; 6 mm in the test with Aspergillus niger; 15 mm with Pseudomonas putida; 10 mm in the test with Bacillus subtilis; 7 mm in the test with Escherichia coli.

For the molecule `CC1=NN(C(=O)n2c(=O)c3ccccc3c3c4cc(C)ccc4[nH]c32)C(=O)C1`, the Activity was 56.5% in test [1], 64.2% in [4] and 58% in test [2]. Further, the zone of inhibition at 1000 µg/mL in the test on Aspergillus fumigatus turned out to be 15 mm; with Aspergillus flavus, 14 mm; in the test with Aspergillus niger, 12 mm; in the test with Pseudomonas putida, 18 mm; in the test on Bacillus subtilis, 8 mm; in the test on Escherichia coli, 10 mm.
